Experimental data reported in patent publication US4044043A, “Derivatives of 9-oxo-13-trans-prostenoic acid esters” (American Cyanamid Company, priority 1975, dated 1977).
Read-outs that look alike come from different tables or passages of the source.

Test system: gastric acid secretion
Assay: Inhibition of basal Gastric Acid Secretion (Acute Gastric Fistula Rat)
Format: in vivo, Female Sprague-Dawley rats
Conditions: 10 mg./kg. intraduodenal
Outline: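 Fasted (18-24 h) female Sprague-Dawley rats (140-160 g) with acute gastric fistula; compound given intraduodenally in 0.5% methocel/0.4% Tween 80/saline. Gastric juice collected at 60 and 120 min after a discarded 30-min sample, titrated with 0.01N NaOH to pH 7.0; percent inhibition of acid output versus controls, three rats per group.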

[1] = 2 h, B: 120 minute collection, read-out: % Inhibition Total Acid Output
[2] = 2 h, B: 120 minute collection, read-out: % Inhibition Total Acidity

Row | Compound | inhibition in vivo at 10 mg/kg (1 h, A: 60 minute collection, read-out: % Inhibition Total Acid Output) [%] | inhibition in vivo at 10 mg/kg (1 h, A: 60 minute collection, read-out: % Inhibition Total Acidity) [%] | inhibition in vivo at 10 mg/kg [1] [%] | inhibition in vivo at 10 mg/kg [2] [%]
1 | CCC/C=C/[C@H]1CCC(=O)[C@@H]1CCCCCCC(=O)O (relative stereo) [9-oxo-18,19,20-trinor-13-trans-prostenoic acid] | 55 | 20 | 55 | 52
2 | CC(C)CC/C=C/[C@@H]1CCC(=O)[C@H]1CCCCCCC(=O)O (relative stereo) [17-methyl-9-oxo-19,20-dinor-13-trans-prostenoic acid] |  |  | 53 | 51
